Results as given in publication PMC9825622, “Leveraging molecular structure and bioactivity with chemical language models for de novo drug design” (Nature Communications, 2023).
pIC50, pKd: −log10 of the molar value.

What was measured:
PI3Kγ = target: T1, PI3Kγ (Homo sapiens, UniProt P48736); assay: KINOMEscan biochemical kinase binding assay (Kd determination); details: for experimentally determined binding constant Kd: Fig. 4, commercially available compounds, absence of a value (−) = no observed binding; for pKd: average of N = 2 independent experiments
T1 construct: purchased Eurofins Discovery (KINOMEscan, fee-for-service)
T1 sequence (P48736 whole entry): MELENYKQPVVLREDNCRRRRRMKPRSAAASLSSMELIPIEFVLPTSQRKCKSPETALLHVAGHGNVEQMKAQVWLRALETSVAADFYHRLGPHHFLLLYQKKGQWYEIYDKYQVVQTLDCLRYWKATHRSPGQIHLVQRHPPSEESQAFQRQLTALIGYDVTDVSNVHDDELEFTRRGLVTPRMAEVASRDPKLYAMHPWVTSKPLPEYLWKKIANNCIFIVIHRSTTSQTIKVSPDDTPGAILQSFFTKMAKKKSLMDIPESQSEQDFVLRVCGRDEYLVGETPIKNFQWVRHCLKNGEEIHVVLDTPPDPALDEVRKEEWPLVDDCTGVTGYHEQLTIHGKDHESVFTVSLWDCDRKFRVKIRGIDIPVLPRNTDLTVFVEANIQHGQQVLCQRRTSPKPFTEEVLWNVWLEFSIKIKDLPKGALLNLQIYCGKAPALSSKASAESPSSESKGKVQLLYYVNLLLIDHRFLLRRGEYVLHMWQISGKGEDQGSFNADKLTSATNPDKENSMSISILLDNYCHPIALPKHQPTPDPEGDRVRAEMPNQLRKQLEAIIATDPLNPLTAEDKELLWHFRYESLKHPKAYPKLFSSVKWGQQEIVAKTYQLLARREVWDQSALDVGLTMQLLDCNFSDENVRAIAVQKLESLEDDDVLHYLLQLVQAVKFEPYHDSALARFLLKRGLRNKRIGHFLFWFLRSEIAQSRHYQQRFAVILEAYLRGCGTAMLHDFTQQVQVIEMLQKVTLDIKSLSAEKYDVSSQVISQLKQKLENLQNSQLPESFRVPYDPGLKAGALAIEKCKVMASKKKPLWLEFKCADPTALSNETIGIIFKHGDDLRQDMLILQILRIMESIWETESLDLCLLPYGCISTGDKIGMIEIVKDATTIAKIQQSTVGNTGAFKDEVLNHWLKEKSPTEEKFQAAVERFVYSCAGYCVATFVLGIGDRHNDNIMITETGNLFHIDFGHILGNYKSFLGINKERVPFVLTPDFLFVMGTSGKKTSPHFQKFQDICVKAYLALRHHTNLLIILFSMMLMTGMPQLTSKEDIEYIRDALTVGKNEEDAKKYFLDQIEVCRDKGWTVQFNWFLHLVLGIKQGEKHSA
Description: PI3Kγ binding assays were performed by Eurofins Discovery (https://www.eurofinsdiscoveryservices.com) on a fee-for-service basis. KINOMEscan™ was used to determine the dissociation constant Kd. […] Competition of the test compound with the immobilized ligand was measured via quantitative PCR (qPCR) of the DNA tag of DNA-tagged kinase. An 11-point three-fold serial dilution of each test compound was prepared in 100% DMSO at 100× final test concentration and subsequently diluted to 1× in the assay (final DMSO concentration = 1%). Dissociation constants were estimated with a standard dose-response curve using the Hill equation (Eq. 4)[71]:4 Response=Background+Signal−Background/1+KdHillslope/Dose^HillSlope, where the Hill slope was set to −1. Curves were fitted using a nonlinear least square fit with the Levenberg–Marquardt algorithm[72],[73].

[1] = tested on: HD-MB03 medulloblastoma cells; assay: CellTiter-Glo cell viability/proliferation assay; type: cell-based, human; details: for pIC50: Homo sapiens, HD-MB03, 72 h, 72 h exposure, medium supplemented with FBS, read-out: IC50 (CellTiter-Glo viability, best-fit)
Description: HD-MBO3 Group 3 medulloblastoma cells were cultured in RPMI medium supplemented with 10% fetal bovine serum (FBS, both from Sigma-Aldrich, St. Louis, USA), 1% Penicillin-Streptomycin, and 1% GlutaMAX (both from Gibco/Thermo Fisher Scientific, Waltham, USA). The cells were maintained at 37 °C in a humidified atmosphere containing 5% CO2. […] DMSO was used as solvent control in all assays.
Cell viability was determined using CellTiter-Glo® 2.0 Cell Viability Assay (G9242, Promega, Madison, USA). About 500 cells per 20 μl were seeded in a flat bottom 384-well plate (781098, Greiner bio-one, Kremsmünster, Austria). Increasing concentrations of compounds were deposited on cells using an HP Digital Drug Dispenser (Hewlett-Packard, Palo Alto, USA) with DMSO total volume normalization. After 72 h, the CellTiter-Glo reagent was added (volume/volume) following the manufacturer’s instructions. Luminescence representing the number of viable cells was quantified with a Cytation 3 imaging reader (BioTek, Winooski, USA). […] Prism 9 software (GraphPad Software, San Diego, CA, USA) was used to calculate best-fit values of inhibitor vs. normalized response and to predict IC50.

PI3Kα = details: cited from earlier work
PI3Kδ = details: cited from earlier work

| experimentally determined binding constant Kd (PI3Kγ) | SMILES | also measured |
| --- | --- | --- |
| no observed binding | COc1ccc(-c2cnc(N)cc2C)cc1OC [Compound 6] | – |
| no observed binding | COc1ccc(-c2noc(-c3ccc(O)cc3)n2)cc1OC [Compound 13] | – |
| no observed binding | COc1ccc(-c2cc(C(F)F)n3ncc(C#N)c3n2)cc1OC [Compound 4] | PI3Kγ activity in vitro (biochemical assay), in words (PI3Kγ): inactive in vitro |
| – | COc1c(OCCCN2CCOCC2)ccc2c1N=C(NC(=O)c1cnc(N)nc1)N1CCN=C21 [copanlisib, Copanlisib] | pIC50 [1]: 7.71; inhibitory activity against PI3Kα (PI3Kα): sub-nanomolar; inhibitory activity against PI3Kδ (PI3Kδ): sub-nanomolar |
| no observed binding | COc1ccc(Nc2nc(-c3ccc(Br)cc3)nc3ccccc23)cc1OC [Compound 10] | – |
| no observed binding | COc1ccc(-c2nc(-c3ccc(F)cc3)no2)cc1OC [Compound 3] | – |
| no observed binding | COc1ccc(C(=O)Nc2ccc3ccccc3c2)cc1OC [Compound 8] | – |
| – | CC(C)n1nc(-c2cc(Cl)c(O)c(C3CC3)c2)c2c(N)ncnc21 [Compound 20] | pKd (PI3Kγ): 6.92 |
| – | CC(C)n1nc(-c2cc(C3CC3)c(O)c(C3CC3)c2)c2c(N)ncnc21 [Compound 21] | pKd (PI3Kγ): 6.54 |
| no observed binding | COc1ccc(-c2cc(C(F)(F)F)n3ncc(C#N)c3n2)cc1OC [Compound 2] | PI3Kγ activity in vitro (biochemical assay), in words (PI3Kγ): inactive in vitro |
| no observed binding | COc1ccc(-c2nc(CCl)c(C)o2)cc1OC [Compound 14] | – |
| no observed binding | COc1ccc(Nc2ncccc2[N+](=O)[O-])cc1OC [Compound 15] | – |
| no observed binding | COc1ccc(-c2nc(-c3ccc(F)cc3)c(-c3ccc(F)cc3)[nH]2)cc1O [Compound 9] | – |
| no observed binding | COc1ccc(-c2cc(CCl)no2)cc1OC [Compound 7] | – |
| – | CC(C)n1nc(-c2cc(Cl)c(O)c(Cl)c2)c2c(N)ncnc21 [Compound 22] | pKd (PI3Kγ): 7.89; effect on viability at 100 nM ([1]; 100 nM concentration): neither 18 nor 22 caused a significant reduction in viability; pIC50 [1]: 6.73 |
| no observed binding | COc1ccc(-c2nnc(CCl)o2)cc1OC [Compound 11] | – |
| no observed binding | COc1ccc(-c2nc(CN)no2)cc1OC [Compound 12] | – |
| no observed binding | COc1ccc(-c2nnc(C(C)C)s2)cc1OC [Compound 5] | – |

| SMILES | experimentally determined binding constant Kd (PI3Kγ) | also measured |
| --- | --- | --- |
| COc1ccc(-c2cnoc2-c2cc(OC)c(OC)c(OC)c2)cc1O [Compound 16] | no observed binding | – |
